What was measured:
Assay type in all cases: cell-based
[1] = molecular target: T1, 5-HT3A-A3 (M3M4 loop replaced by three alanines) (Mus musculus, UniProt P23979, DELINS338-452AAA); assay: Two-electrode voltage clamp, oocytes expressing 5-HT3A-A3
T1 construct: expressed in transfected cells; host or cells: Xenopus laevis oocytes injected with mRNA
T1 sequence (P23979 with tags, fused parts or gaps isoform P23979-2 DELINS338-452AAA limits assumed): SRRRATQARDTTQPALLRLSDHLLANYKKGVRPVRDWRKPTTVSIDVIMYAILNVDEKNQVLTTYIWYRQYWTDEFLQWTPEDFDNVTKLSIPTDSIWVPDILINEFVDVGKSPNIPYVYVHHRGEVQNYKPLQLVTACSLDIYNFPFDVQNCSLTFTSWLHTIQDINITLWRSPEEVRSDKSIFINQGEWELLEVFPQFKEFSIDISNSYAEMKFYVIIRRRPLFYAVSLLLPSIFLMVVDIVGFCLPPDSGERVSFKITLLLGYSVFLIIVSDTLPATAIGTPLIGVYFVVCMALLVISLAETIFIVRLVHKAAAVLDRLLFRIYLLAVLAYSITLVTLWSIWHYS
Source text: (§1) The mouse 5-HT3A cDNA with an N-terminal V5 epitope tag was cloned into the pXOON vector as previously described, and is referred to in this paper as “wild-type” (WT). The starting construct for all of the M3M4 loop replacement constructs used in this work was the 5-HT3A-ΔM3M4 construct formed by splicing the cytoplasmic end of M3 (M3-LVHK/QDLQRP…) to the cytoplasmic end of M4 (…WLRVGY/VLDRLL-M4). The splice was made at the site of the “/” to yield the sequence M3-LVHK/VLDRLL-M4 [34]. This removed 115 residues predicted to form the M3M4 loop.
(§2) The construction of the 5-HT3A-glvM3M4 chimera with the 5-HT3A M3M4 loop replaced by the GLIC heptapeptide M3M4 loop (SQPARAA) was described previously. Point mutations, alanine and Gly-Ser-Ala insertions into the 5-HT3A-ΔM3M4 construct were generated with the Quikchange site directed mutagenesis procedure (Stratagene, La Jolla, CA). The entire coding region of all mutant constructs was verified by DNA sequencing (Albert Einstein College of Medicine DNA Sequencing Facility). The pXOON plasmid was linearized using NheI and capped mRNA prepared with T7 RNA polymerase (mMessage mMachine, Ambion, Austin, TX).
(§3) Use of Xenopus laevis in this study was carried out in strict accordance with the recommendations in the Guide for the Care and Use of Laboratory Animals of the National Institutes of Health. The protocol was approved by the Albert Einstein College of Medicine Animal Care and Use Committee (Protocol Number: 20081201). All surgery was performed under tricaine anesthesia, and all efforts were made to minimize suffering. Oocyctes were harvested from Xenopus (Nasco Science, Fort Atkinson, WI) anesthetized with 0.15% tricaine. Oocyctes were defolliculated by incubation in 2 mg ml^−1 Type 1A collagenase (Sigma-Aldrich, St. Louis, MO) in OR2 (85 mM NaCl, 2 mM KCl, 1 mM MgCl2, and 5 mM HEPES; pH adjusted to 7.5 with NaOH) for a 60 or 75 min. Oocytes were washed in OR2 and stored at 16°C in SOS medium: 100 mM NaCl, 2 mM KCl, 1 mM MgCl2, 1.8 mM CaCl2 5 mM HEPES, pH 7.5 with 100 IU ml^−1 penicillin, 100 µg ml^−1 streptomycin, and 250 ng ml^−1 amphotericin B (Invitrogen, Carlsbad, CA) and 5% horse serum (Sigma-Aldrich). 24 hrs following isolation, oocyctes were injected with 23 nl (2.3 ng) of mRNA and were kept in SOS media for 2–5 d at 16°C.
(§4) Currents were recorded under two-electrode voltage clamp from oocytes 2–5 d post-injection as described previously. […] The perfusion chamber volume was 200 µl. […]
(§5) Desensitization rates were determined by fitting a single exponential decay function to the current data with Prism 4 software (GraphPad Software). Significant differences compared with wild-type were determined by a one-way ANOVA (p<0.05) using Dunnett's multiple comparison post-hoc test (p<0.05). […]

[2] = molecular target: T2, 5-HT3A-A1 (M3M4 loop replaced by one alanine) (Mus musculus, UniProt P23979, DELINS338-452A); assay: Two-electrode voltage clamp, oocytes expressing 5-HT3A-A1
T2 construct: expressed in transfected cells; host or cells: Xenopus laevis oocytes injected with mRNA
T2 sequence (P23979 with tags, fused parts or gaps isoform P23979-2 DELINS338-452A limits assumed): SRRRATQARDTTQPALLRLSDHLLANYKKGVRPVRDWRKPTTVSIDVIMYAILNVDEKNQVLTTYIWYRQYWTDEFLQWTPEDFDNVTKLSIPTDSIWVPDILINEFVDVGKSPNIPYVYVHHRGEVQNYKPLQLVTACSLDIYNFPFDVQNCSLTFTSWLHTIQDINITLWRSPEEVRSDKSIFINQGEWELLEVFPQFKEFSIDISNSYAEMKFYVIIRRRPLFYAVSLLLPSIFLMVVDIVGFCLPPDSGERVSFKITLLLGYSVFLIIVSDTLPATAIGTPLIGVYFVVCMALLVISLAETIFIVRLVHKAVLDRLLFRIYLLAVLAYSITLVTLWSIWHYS
Source text: as §1, §2, §3, §4, §5

[3] = molecular target: T3, 5-HT3A ESQPA-M3M4 loop construct (Mus musculus, UniProt P23979); assay: Two-electrode voltage clamp, oocytes expressing ESQPA-M3M4 loop construct; details: up to 50 µM 5-HT, Xenopus oocytes
T3 construct: expressed in transfected cells; host or cells: Xenopus laevis oocytes injected with mRNA
T3 sequence (P23979 with tags, fused parts or gaps isoform P23979-2 limits assumed): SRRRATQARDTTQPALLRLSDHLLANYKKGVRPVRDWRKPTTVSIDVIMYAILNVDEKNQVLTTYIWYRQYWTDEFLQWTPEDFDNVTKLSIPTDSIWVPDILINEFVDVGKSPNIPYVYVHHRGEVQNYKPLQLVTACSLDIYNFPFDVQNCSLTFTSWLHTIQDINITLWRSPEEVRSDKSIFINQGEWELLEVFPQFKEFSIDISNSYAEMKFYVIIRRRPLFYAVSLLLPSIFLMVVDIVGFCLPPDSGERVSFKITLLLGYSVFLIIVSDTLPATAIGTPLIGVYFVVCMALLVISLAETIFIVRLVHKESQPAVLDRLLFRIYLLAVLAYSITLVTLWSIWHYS
Source text: as §1
(§6) The construction of the 5-HT3A-glvM3M4 chimera with the 5-HT3A M3M4 loop replaced by the GLIC heptapeptide M3M4 loop (SQPARAA) was described previously. Point mutations, alanine and Gly-Ser-Ala insertions into the 5-HT3A-ΔM3M4 construct were generated with the Quikchange site directed mutagenesis procedure (Stratagene, La Jolla, CA). […]
(§7) Currents were recorded under two-electrode voltage clamp from oocytes 2–5 d post-injection as described previously. […]
as §5

[4] = molecular target: T4, 5-HT3A M3M4 loop SQAPARA construct (Mus musculus, UniProt P23979); assay: Two-electrode voltage clamp, oocytes expressing SQAPARA loop construct; details: 10 µM 5-HT, Xenopus oocytes
T4 construct: expressed in transfected cells; host or cells: Xenopus laevis oocytes injected with mRNA
T4 sequence (P23979 with tags, fused parts or gaps): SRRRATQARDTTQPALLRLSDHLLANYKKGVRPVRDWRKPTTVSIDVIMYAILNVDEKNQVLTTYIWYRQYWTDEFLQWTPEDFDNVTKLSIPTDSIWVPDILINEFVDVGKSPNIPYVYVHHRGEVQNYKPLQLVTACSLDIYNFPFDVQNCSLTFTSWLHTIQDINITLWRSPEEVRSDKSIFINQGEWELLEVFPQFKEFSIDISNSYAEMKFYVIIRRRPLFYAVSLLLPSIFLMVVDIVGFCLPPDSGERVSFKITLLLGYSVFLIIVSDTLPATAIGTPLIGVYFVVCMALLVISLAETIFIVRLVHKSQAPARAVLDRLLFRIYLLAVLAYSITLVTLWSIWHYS
Source text: as §1, §6, §7, §5

NCCc1c[nH]c2ccc(O)cc12 [5-HT, 5-hydroxytryptamine]
nH (Hill coefficient) [1]: 2.6±0.4 | 10–90% Activation rise time ([1]; 10 µM 5-HT): 621 ± 47 ms | Imax (peak current) ([1]; 10 µM 5-HT, Xenopus oocytes, -60 mV): 6300±800 nA | Desensitization time constant τ ([1]; prolonged 10 µM 5-HT, may be limited by solution exchange): 8 ± 2 s | 10–90% Activation rise time ([2]; 10 µM 5-HT): 1055 ± 17 ms | Desensitization time constant τ ([2]; initial 10 µM 5-HT application, may be limited by solution exchange): 7 ± 1 s | Imax (peak current) ([2]; initial application of 10 µM 5-HT, Xenopus oocytes, -60 mV): 1800±380 nA | Current induced by subsequent 5-HT application ([2]; subsequent 5-HT application 360 s later): 159±5 nA | 5-HT induced current [3]: no currents were observed | Peak current [4]: 87±30 nA
